target: FGFR2 (Homo sapiens, UniProt P21802); assay: FGFR wild type enzyme assay (HTRF KinEASE-TK), FGFR2; conditions: Enz FGFR2 (nM), FGFR2 wild type enzyme assay
Sequence (P21802 399-821 limits assumed): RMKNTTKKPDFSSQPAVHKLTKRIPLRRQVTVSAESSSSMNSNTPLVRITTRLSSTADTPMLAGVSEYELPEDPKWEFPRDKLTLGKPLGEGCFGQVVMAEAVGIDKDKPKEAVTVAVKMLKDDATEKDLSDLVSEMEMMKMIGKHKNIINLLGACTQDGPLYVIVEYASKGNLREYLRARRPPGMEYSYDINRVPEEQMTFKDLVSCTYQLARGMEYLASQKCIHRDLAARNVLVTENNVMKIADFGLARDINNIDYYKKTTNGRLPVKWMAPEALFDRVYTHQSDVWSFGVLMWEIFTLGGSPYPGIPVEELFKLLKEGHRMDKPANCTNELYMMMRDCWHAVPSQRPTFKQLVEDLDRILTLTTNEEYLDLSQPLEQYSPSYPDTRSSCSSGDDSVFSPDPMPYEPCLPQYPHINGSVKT

SMILES | IC50 [nM]
CN(C)[C@H]1CC[C@@H](n2cc(-c3cc(Sc4ncccc4F)c4c(C#N)cnn4c3)nn2)CC1 [Example 392, 6-[1-[4-(dimethylamino)cyclohexyl]triazol-4-yl]-4-[(3-fluoro-2-pyridyl)sulfanyl] pyrazolo [1,5-a]pyridine-3-carbonitrile] | 12
CC(=O)N[C@H]1CC[C@@H](n2cc(-c3cc(Sc4ncccc4F)c4c(C#N)cnn4c3)c(C)n2)CC1 [Example 393, N-((1s,4s)-4-(4-(3-cyano-4-((3-fluoropyridin-2-yl)thio)pyrazolo[1,5-a]pyridin-6-yl)-3-methyl-1H-pyrazol-1-yl)cyclohexyl)acetamide] | 6
CC(=O)N[C@H]1CC[C@@H](n2cc(-c3cc(Sc4ccccc4C#N)c4c(C#N)cnn4c3)c(C)n2)CC1 [Example 394, N-((1s,4s)-4-(4-(3-cyano-4-((2-cyanophenyl)thio)pyrazolo [1,5-a]pyridin-6-yl)-3-methyl-1H-pyrazol-1-yl)cyclohexyl)acetamide] | 3
CN1CCC(n2ncc(-c3cc(Sc4ncccc4F)c4c(C#N)cnn4c3)c2Cl)CC1 [Example 395, 6-(5-chloro-1-(1-methylpiperidin-4-yl)-1H-pyrazol-4-yl)-4-((3-fluoropyridin-2-yl)thio)pyrazolo[1,5-a]pyridine-3-carbonitrile] | 3
CN1CCC(n2ncc(-c3cc(Sc4ccccc4C#N)c4c(C#N)cnn4c3)c2Cl)CC1 [Example 396, 6-(5-chloro-1-(1-methylpiperidin-4-yl)-1H-pyrazol-4-yl)-4-((2-cyanophenyl)thio)pyrazolo [1,5-a]pyridine-3-carbonitrile] | 1
CC(=O)N1CCC(n2ncc(-c3cc(Sc4ncccc4F)c4c(C#N)cnn4c3)c2F)CC1 [Example 397, 6-(1-(1-acetylpiperidin-4-yl)-5-fluoro-1H-pyrazol-4-yl)-4-((3-fluoropyridin-2-yl)thio)pyrazolo[1,5-a]pyridine-3-carbonitrile] | 5
CC(=O)N1CCC(n2ncc(-c3cc(Sc4ccccc4C#N)c4c(C#N)cnn4c3)c2F)CC1 [Example 398, 6-(1-(1-acetylpiperidin-4-yl)-5-fluoro-1H-pyrazol-4-yl)-4-((2-cyanophenyl)thio)pyrazolo [1,5-a]pyridine-3-carbonitrile] | 2
CC(=O)N1CCC(n2ncc(-c3cc(Sc4nc(C)c(F)cc4F)c4c(C#N)cnn4c3)c2C)CC1 [Example 399, 6-(1-(1-acetylpiperidin-4-yl)-5-methyl-1H-pyrazol-4-yl)-4-((3,5-difluoro-6-methylpyridin-2-yl)thio)pyrazolo[1,5-a]pyridine-3-carbonitrile] | 2
CC(=O)N1CCC(n2cc(-c3cc(Sc4ccccc4C#N)c4c(C#N)cnn4c3)c(C)n2)CC1 [Example 400, 6-(1-(1-acetylpiperidin-4-yl)-3-methyl-1H-pyrazol-4-yl)-4-((2-cyanophenyl)thio)pyrazolo [1,5-a]pyridine-3-carbonitrile] | 3
CC(=O)N1CCC(n2cc(-c3cc(Sc4ncccc4F)c4c(C#N)cnn4c3)c(C)n2)CC1 [Example 401, 6-(1-(1-acetylpiperidin-4-yl)-3-methyl-1H-pyrazol-4-yl)-4-((3-fluoropyridin-2-yl)thio)pyrazolo[1,5-a]pyridine-3-carbonitrile] | 7
Cc1c(-c2cc(Sc3ccc(F)cc3C#N)c3c(C#N)cnn3c2)cnn1[C@H]1CCCN(S(C)(=O)=O)C1 [Example 402, (S)-4-((2-cyano-4-fluorophenyl)thio)-6-(5-methyl-1-(1-(methylsulfonyl)piperidin-3-yl)-1H-pyrazol-4-yl)pyrazolo[1,5-a]pyridine-3-carbonitrile] | 2
Cc1c(-c2cc(Sc3ccc(F)cc3C#N)c3c(C#N)cnn3c2)cnn1C1CCN(S(C)(=O)=O)CC1 [Example 403, 4-((2-cyano-4-fluorophenyl)thio)-6-(5-methyl-1-(1-(methylsulfonyl)piperidin-4-yl)-1H-pyrazol-4-yl)pyrazolo[1,5-a]pyridine-3-carbonitrile] | 2
N#Cc1cnn2cc(-c3cn([C@H]4CCCNC4)nn3)cc(Sc3ncccc3F)c12 [Example 404, (S)-4-((3-fluoropyridin-2-yl)thio)-6-(1-(piperidin-3-yl)-1H-1,2,3-triazol-4-yl)pyrazolo[1,5-a]pyridine-3-carbonitrile] | 15
N#Cc1cc(F)ccc1Sc1cc(-c2ccc(N3CCOCC3)nc2)cn2ncc(C#N)c12 [Example 405, 4-((2-cyano-4-fluorophenyl)thio)-6-(6-morpholinopyridin-3-yl)pyrazolo[1,5-a]pyridine-3-carbonitrile] | 2
Cc1c(-c2cc(Sc3ccccc3C#N)c3c(C#N)cnn3c2)cnn1C1CCN(C(=O)N(C)C)CC1 [Example 406, 4-(4-(3-cyano-4-((2-cyanophenyl)thio)pyrazolo [1,5-a]pyridin-6-yl)-5-methyl-1H-pyrazol-1-yl)-N,N-dimethylpiperidine-1-carboxamide] | 1
CN(c1ccc(-c2cc(Sc3ccccc3C#N)c3c(C#N)cnn3c2)cn1)C1CCCNC1 (stereo not drawn) [Example 407, 4-(2-cyanophenyl)sulfanyl-6-[6-[methyl(3-piperidyl)amino]-3-pyridyl]pyrazolo[1,5-a]pyridine-3-carbonitrile] | 0.2
CC(=O)N1CCC(n2ncc(-c3cc(Sc4nc(C)c(Cl)cc4F)c4c(C#N)cnn4c3)c2C)CC1 [Example 408, 6-(1-(1-acetylpiperidin-4-yl)-5-methyl-1H-pyrazol-4-yl)-4-((5-chloro-3-fluoro-6-methylpyridin-2-yl)thio)pyrazolo[1,5-a]pyridine-3-carbonitrile] | 2
CC(=O)N1[C@@H]2CC[C@H]1C[C@H](n1cc(-c3cc(Sc4ccccc4C#N)c4c(C#N)cnn4c3)c(C)n1)C2 [Example 409, 6-(1-((1R,3s,5S)-8-acetyl-8-azabicyclo[3.2.1]octan-3-yl)-3-methyl-1H-pyrazol-4-yl)-4-((2-cyanophenyl)thio)pyrazolo [1,5-a]pyridine-3-carbonitrile] | 5
CC(=O)N1[C@@H]2CC[C@H]1C[C@H](n1cc(-c3cc(Sc4ccc(F)cc4C#N)c4c(C#N)cnn4c3)c(C)n1)C2 [Example 410, 6-(1-((1R,3s,5S)-8-acetyl-8-azabicyclo[3.2.1]octan-3-yl)-3-methyl-1H-pyrazol-4-yl)-4-((2-cyano-4-fluorophenyl)thio)pyrazolo [1,5-a]pyridine-3-carbonitrile] | 26
CC(=O)N1CC[C@H](n2ncc(-c3cc(Sc4ccc(F)cc4C#N)c4c(C#N)cnn4c3)c2C)C[C@@H]1C [Example 411, 6-(1-((2S,4S)-1-acetyl-2-methylpiperidin-4-yl)-5-methyl-1H-pyrazol-4-yl)-4-((2-cyano-4-fluorophenyl)thio)pyrazolo [1,5-a]pyridine-3-carbonitrile] | 2
CC(=O)N1CC[C@@H](n2cc(-c3cc(Sc4ccc(F)cc4C#N)c4c(C#N)cnn4c3)cn2)C[C@H]1C [Example 412, 6-(1-((2R,4R)-1-acetyl-2-methylpiperidin-4-yl)-1H-pyrazol-4-yl)-4-((2-cyano-4-fluorophenyl)thio)pyrazolo [1,5-a]pyridine-3-carbonitrile] | 1
Cc1nn([C@H]2CCCNC2)cc1-c1cc(Sc2ccccc2C#N)c2c(C#N)cnn2c1 [Example 413, (S)-4-((2-cyanophenyl)thio)-6-(3-methyl-1-(piperidin-3-yl)-1H-pyrazol-4-yl)pyrazolo[1,5-a]pyridine-3-carbonitrile] | 3
Cc1nn([C@H]2CCCNC2)cc1-c1cc(Sc2ccc(F)cc2C#N)c2c(C#N)cnn2c1 [Example 414, (S)-4-((2-cyano-4-fluorophenyl)thio)-6-(3-methyl-1-(piperidin-3-yl)-1H-pyrazol-4-yl)pyrazolo[1,5-a]pyridine-3-carbonitrile] | 7
Cc1nn([C@H]2CCCNC2)cc1-c1cc(Sc2ncccc2F)c2c(C#N)cnn2c1 [Example 415, (S)-4-((3-fluoropyridin-2-yl)thio)-6-(3-methyl-1-(piperidin-3-yl)-1H-pyrazol-4-yl)pyrazolo[1,5-a]pyridine-3-carbonitrile] | 7
Cc1nn([C@H]2CCCN(C(=O)CO)C2)cc1-c1cc(Sc2ncccc2F)c2c(C#N)cnn2c1 [Example 420, (S)-4-((3-fluoropyridin-2-yl)thio)-6-(1-(1-(2-hydroxyacetyl)piperidin-3-yl)-3-methyl-1H-pyrazol-4-yl)pyrazolo[1,5-a]pyridine-3-carbonitrile] | 4
N#Cc1cnn2cc(-c3cnn([C@H]4CCNC4)c3)cc(Sc3ncccc3F)c12 [Example 421, (S)-4-((3-fluorop;yridin-2-yl)thio)-6-(1-(pyrrolidin-3-yl)-1H-pyrazol-4-yl)pyrazolo[1,5-a]pyridine-3-carbonitrile] | 5
CC(=O)N1CCC(n2ncc(-c3cc(Sc4ncccc4F)c4c(C#N)cnn4c3)c2CO)CC1 [Example 423, 6-(1-(1-acetylpiperidin-4-yl)-5-(hydroxymethyl)-1H-pyrazol-4-yl)-4-((3-fluoropyridin-2-yl)thio)pyrazolo[1,5-a]pyridine-3-carbonitrile] | 259
COCc1c(-c2cc(Sc3ccccc3C#N)c3c(C#N)cnn3c2)cnn1C1CCN(C)CC1 [Example 424, 4-((2-cyanophenyl)thio)-6-(5-(methoxymethyl)-1-(1-methylpiperidin-4-yl)-1H-pyrazol-4-yl)pyrazolo[1,5-a]pyridine-3-carbonitrile] | 46
CC(=O)N1CCC[C@H](n2cc(-c3cc(Sc4ccc(F)cc4C#N)c4c(C#N)cnn4c3)c(C)n2)C1 [Example 425, (S)-6-(1-(1-acetylpiperidin-3-yl)-3-methyl-1H-pyrazol-4-yl)-4-((2-cyano-4-fluorophenyl)thio)pyrazolo [1,5-a]pyridine-3-carbonitrile] | 6
Cc1nn([C@H]2CCCN(C(=O)CO)C2)cc1-c1cc(Sc2ccc(F)cc2C#N)c2c(C#N)cnn2c1 [Example 426, (S)-4-((2-cyano-4-fluorophenyl)thio)-6-(1-(1-(2-hydroxyacetyl)piperidin-3-yl)-3-methyl-1H-pyrazol-4-yl)pyrazolo[1,5-a]pyridine-3-carbonitrile] | 4

From patent publication US20240270741A1 (Cogent Biosciences, Inc., priority 2023, published 2024)
